According to patent US7427663B2, “Cardio myopeptidin, the production and the use thereof” (Dalian Zhen-Ao Pharmaceutical Co., Ltd., priority 2003, dated 2008):

Assays:
[1] = test system: cardiac muscle of ischemia-reperfusion in rats; experiment: Damage of myocardial ultrastructure caused by ischemia-reperfusion, electron microscope semi-quantitative assay; format: in vivo; details: rat, 2.0 mg/Kg i.v.
Experimental: (§1) By reference to literature methods, sublingually administer cardio myopeptidin or the reference drug through intravenous injection after rat's coronary artery LAD is ligated for 5 minutes; loosen the ligature after 10 minutes of myocardial ischemia, and reperfusion for 30 min, and simultaneously record II-lead ECG. Blood is taken from the abdominal aorta after the completion of reperfusion, and the heart is perfused and fixed with 6% glutaraldehyde and 0.1 M sodium cacodylate buffer for 2 hours after it is perfused and cleaned with physiological saline water through the aorta. Then the ischemic cardiac muscle from the left frontal wall is picked and cut into 1 mm^3 slices. The slices are immersed in 4% glutaraldehyde and 0.1 M sodium cacodylate buffer to be fixed for the preparation of electron microscope specimens. Slice the specimen of each cardiac muscle after fixation with osmic acid, serial dehydration with acetone, embedment and polymerization with epoxy resin 618, and for each cardiac muscle, cut 4 embedded pieces. Randomly take 20 photos for each group of cardiac muscle of animals with the negative magnification equal to 12000. Observe the change in the ultrastructure, and classify and determine the value according to categories of pathologic changes and severity of damage of mitochondrion, myocardial fiber and other components. […]

[2] = test system: myocardial ischemia in cats; experiment: Epicardium electrocardiogram of cats with persistent myocardial ischemia, therapeutic administration; format: in vivo; details: cat, 2.0 mg/Kg i.v.
[3] = test system: myocardial ischemia-reperfusion in rats; experiment: Plasma FFA content of rats with ischemia-reperfusion; format: in vivo; details: rat I-R, 2.0 mg/kg
Experimental: as §1

[4] = test system: myocardial oxygen metabolism in dogs; experiment: Myocardial oxygen consumption and oxygen uptake in anesthetized dogs; format: in vivo; details: dog, i.v. 2 mg/kg
Excerpt: Anesthetize dogs with sodium pentobarbital. Conduct endotracheal intubation and artificial respiration, and use an RM-86 polygraph to monitor electrocardiogram and aortic pressure. Open the thoracic cavity from the left side to expose the heart. Intubate a cannula from the apex of the heart to the left ventricle, and record the pressure of the left ventricle and pressure change rate (±dp/dt max). In order to know the change in circulation of the coronary artery and myocardial oxygen metabolism, separate the left circumflex branch of the coronary artery of dogs, use an electromagnetic flowmeter to measure the flow of coronary artery, and calculate the resistance against the coronary artery. Intubate a cannula from the external jugular vein of dogs to the […]. Simultaneously draw the arterial blood and the coronary sinus blood. Use a blood gas analyzer (Model ABL-3, Denmark) to determine blood oxygen content, and calculate myocardial oxygen uptake and myocardial oxygen consumption. Keep the arterial blood pH, CO2 and partial pressure of oxygen of dogs within normal range. The dose of MTP is 2.5 and 10 mg/kg, and the interval between two doses is 30 min. Continuously record various parameters after administration until they return to the control value. Take arterial blood and coronary sinus blood at 2, 5, 10 and 30 minutes after administration. Determine blood gas content, calculate myocardial oxygen uptake and myocardial oxygen consumption, and observe the effect of MTP on myocardial oxygen metabolism.

[5] = test system: myocardial ischemia-reperfusion in rats; experiment: Cardiac muscle and plasma CPK, LDH, MDA of rats with ischemia-reperfusion, prophylactic administration; format: in vivo; details: rat I-R
Experimental: (1) Refer to literature methods to make myocardial ischemia-reperfusion damage animal model. Ligate the left anterior descending branch of the coronary artery of rats for 10 minutes after MTP or verapamil (Ver) is sublingually administered through intravenous injection for 5 min, perfuse for 30 min. Continuously observe II-lead ECG through a polygraph. Take 2 ml left heart blood after the completion of reperfusion, and take the cardiac muscle at the cardiac apex of the left ventricle after the heart is perfused through the aorta. […] Grouping of the experiment: In the experiment, the rats are divided into seven groups: pseudo-operation control group (P); ischemia-reperfusion group (ischemia-reperfusion, I-R); ischemia-reperfusion+normal saline group (I-R+N.S); ischemia-reperfusion +0.5, 2.0 or 10.0 mg/Kg cardio myopeptidin groups (I-R+MTP) and ischemia-reperfusion +1.0 mg/Kg verapamil group (I-R+Ver), 8-10 animals in each group.

[6] = test system: isolated rat heart with myocardial ischemia-reperfusion; experiment: Langendorff isolated rat heart, CPK and LDH of coronary effluent; details: 1 μg/ml
Experimental: (2) Refer to literature methods to make Langendorff's cardiac hypoxia-reoxygenation damage animal model of isolated rat heart. Conduct Langendorff's perfusion with K—H liquid with high Ca2+ and low K+ and persistent filling of mixed gas. Hook two platinum filaments on the apex of heart and the root of the left cardiac atrium respectively, and record the electrocardiogram. Ligate LAD for 10 min and loosen for 15 min. Conduct perfusion with K—H liquid with corresponding concentrations of cardio myopeptidin from 5 min before ligation to 5 min after loosening for the cardio myopeptidin-treated group. Determine the related indexes of effluent before and after 8 min of ligation and 2 min after loosening respectively. […]

[7] = test system: myocardial infarction in pigs; experiment: Myocardial infarction in miniature pigs (coronary ligation); format: in vivo; details: pig, phleboclysis 0.25 mg/kg
Experimental: Anesthetize a healthy, grown male miniature pig with the body weight of 20.9±4.0 kg with 30 mg/kg of 3% sodium pentobarbital through auditory intravenous injection. Connect the tracheal cannula to a SC-3 electro-respirator to perform artificial positive pressure respiration. Open the thoracic cavity from the third rib at the left side to expose the heart. Separate the anterior descending branch of the coronary artery (about ⅓ distant from the apex of heart), and put a silk thread 0^□ beneath it for ligation. Place a multi-point fixed type epicardium electrode with 20 points on the myocardial surface under the ligature. Record the myocardial electrical signals on an RTA-1200 model hot-wave recorder of a RM-6300 model eight-lead polygraph through a ZYS1-I model numerical control epicardium scanner and AB-601G bioelectric amplifier, and 1 mV standard voltage is equal to 1 mm. Under the control of the automatic timer, measure the change in the electrocardiogram at those 20 points. Intubate a cannula from the femoral artery to the abdominal aorta, and connect it to a AP-641G blood pressure amplifier through a TP-400T model pressotransduer to measure the mean blood pressure (MBP). […]

myocardial cells = experiment: Influence of pH and time on activity of cardio myopeptidin (MTT method); format: cell-based; details: Adriamycin damage group, without cardio myopeptidin; normal control 0.691
[8] = test system: succinic dehydrogenase of primarily cultured myocardial cells; experiment: Influence of each peak of cardio myopeptidin on enzyme activity of myocardial cells (MTT method); format: cell-based; details: Adriamycin damage group; normal control 0.344
Excerpt: Polypeptide content in cardio myopeptidin is 75-90[…], free amino acids content is 6-15[…], and there is a little nucleic acid and microelement.

## CC(C)NCC(O)COc1cccc2ccccc12 (stereo not drawn) [propranolol]
[1]
  Value of pathological changes ± SD: 0.71 ± 0.84
[2]; ischemia group 11.1
  ΣNST: 6.17 ± 1.5 Num.
[2]; ischemia group 40.5
  ΣΔST: 22.8 ± 6.4 mV
[3]
  FFA (plasma): 77.1 ± 6.4 μmol/100 ml
[4]; 2 min
  myocardial oxygen consumption (MVO2), change value after administration: −31.0 ± 13 %
  myocardial oxygen uptake (O2 ext), change value after administration: −3.00 ± 1.0%
[4]; 5 min
  myocardial oxygen consumption (MVO2), change value after administration: −30.0 ± 13 %
  myocardial oxygen uptake (O2 ext), change value after administration: 3.00 ± 7.0%
[4]; 10 min
  myocardial oxygen consumption (MVO2), change value after administration: −33.0 ± 10 %
  myocardial oxygen uptake (O2 ext), change value after administration: 3.00 ± 8.0%
[4]; 30 min
  myocardial oxygen consumption (MVO2), change value after administration: −32.0 ± 14 %
  myocardial oxygen uptake (O2 ext), change value after administration: 3.00 ± 9.0%

## COc1ccc(CCN(C)CCCC(C#N)(c2ccc(OC)c(OC)c2)C(C)C)cc1OC (stereo not drawn) [verapamil]
[5]; 1.0 mg/Kg
  Cardiac muscle LDH: 75.1 ± 23 u/mg pro
  Cardiac muscle MDA: 66.6 ± 19.8 nmol/100 mg pro
  Plasma LDH: 46.7 ± 8.8 u/ml
  Plasma MDA: 24.9 ± 6.6 nmol/mL
[5]; 1.0 mg/kg
  Cardiac muscle CPK: 886 ± 115 u/100 mg pro
  Plasma CPK: 192 ± 60 u/100 ml
[6]; during ischemia
  Coronary effluent CPK: 16.2 ± 2.8 U/L
  Coronary effluent LDH: 13.0 ± 0.62 U/L
[6]; perfusion
  Coronary effluent CPK: 16.0 ± 1.8 U/L
  Coronary effluent LDH: 14.3 ± 0.95 U/L
[6]; prior ischemia
  Coronary effluent CPK: 16.3 ± 2.0 U/L
  Coronary effluent LDH: 11.4 ± 0.78 U/L
[7]
  Infarction range: 12.5 ± 3.4 %

## COc1cccc2c1C(=O)c1c(O)c3c(c(O)c1C2=O)C[C@@](O)(C(=O)CO)C[C@@H]3O[C@H]1C[C@H](N)[C@H](O)[C@H](C)O1 [Adriamycin]
Myocardial cells
  OD value (MTT method): 0.274 ± 0.011
[8]
  OD value (MTT method): 0.272 ± 0.015
